Calls of active or inactive are those of the source. The calls are words filed in the database; no cut-off is given here.
What was measured:
[1] = molecular target: T1, Kinesin-like protein KIF11 (Homo sapiens, UniProt P52732); assay: Inhibition of His-tagged KSP motor domain (1 to 369) (unknown origin) assessed as inhibition of microtubule-stimulated KSP ATPase activity preincuabted for 30 mins followed by ATP addition measured after 15 mins by Kinase-Glo assay
T1 sequence (P52732 whole entry): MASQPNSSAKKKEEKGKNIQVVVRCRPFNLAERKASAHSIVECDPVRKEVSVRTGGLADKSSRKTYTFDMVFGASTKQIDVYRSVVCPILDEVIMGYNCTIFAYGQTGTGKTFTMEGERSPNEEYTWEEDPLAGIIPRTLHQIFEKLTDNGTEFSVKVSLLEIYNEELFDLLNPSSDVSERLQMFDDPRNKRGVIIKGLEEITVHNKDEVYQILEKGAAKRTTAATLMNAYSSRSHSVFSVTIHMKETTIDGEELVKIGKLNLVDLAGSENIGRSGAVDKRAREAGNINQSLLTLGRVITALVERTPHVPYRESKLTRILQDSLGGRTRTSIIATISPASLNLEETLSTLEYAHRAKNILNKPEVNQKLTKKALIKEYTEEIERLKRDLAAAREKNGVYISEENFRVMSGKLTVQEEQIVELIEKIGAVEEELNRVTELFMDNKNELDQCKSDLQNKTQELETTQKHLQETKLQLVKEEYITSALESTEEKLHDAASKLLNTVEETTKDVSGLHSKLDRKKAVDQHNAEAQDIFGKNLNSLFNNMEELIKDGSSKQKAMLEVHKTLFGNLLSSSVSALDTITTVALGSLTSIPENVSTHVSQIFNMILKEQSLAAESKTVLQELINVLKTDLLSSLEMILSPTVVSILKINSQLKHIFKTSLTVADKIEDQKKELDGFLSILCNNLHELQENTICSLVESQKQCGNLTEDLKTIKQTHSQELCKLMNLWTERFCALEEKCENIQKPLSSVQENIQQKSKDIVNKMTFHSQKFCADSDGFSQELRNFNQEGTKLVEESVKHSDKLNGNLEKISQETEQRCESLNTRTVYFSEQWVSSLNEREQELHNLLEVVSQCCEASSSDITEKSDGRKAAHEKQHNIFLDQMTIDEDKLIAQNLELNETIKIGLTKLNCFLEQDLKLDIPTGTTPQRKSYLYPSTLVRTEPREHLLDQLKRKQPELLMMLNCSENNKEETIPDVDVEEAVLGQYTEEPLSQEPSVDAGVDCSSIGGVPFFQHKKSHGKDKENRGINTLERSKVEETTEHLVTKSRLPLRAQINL

HCT-116 [2] = assay: Growth inhibition of human HCT116 cells after 72 hrs by MTS assay; format: functional, cell-based; conditions: HCT-116, 72 h
HCT-116 [3] = assay: Antitumor activity against human HCT116 cells xenografted in athymic nude BALB/cAJcL mouse assessed as inhibition of tumor growth at 25 mg/kg, iv administered on days 1,3,5,8,10 and 12 measured on day 15; format: functional
Mus musculus [4] = assay: Toxicity in athymic nude BALB/cAJcL mouse xenografted with HCT116 cells assessed as mortality at 75 mg/kg, iv administered on days 1,3,5,8,10 and 12; format: organism-based, HCT-116; conditions: in vivo
HCT-116 [5] = assay: Antitumor activity against human HCT116 cells xenografted in athymic nude BALB/cAJcL mouse assessed as inhibition of tumor growth at 75 mg/kg, iv administered on days 1,3,5,8,10 and 12 measured on day 15; format: functional
[6] = molecular target: T2, Kinesin-like protein KIF11 (Homo sapiens) (UniProt P52732)
T2 sequence (whole entry): T1 sequence (P52732 whole entry)
Description: Binding affinity to KSP motor domain (unknown origin) assessed as change in melting temperature at 100 uM by differential scanning fluorimetry in presence of 1 mM ATP

HCT-116 [7] = assay: Antitumor activity against human HCT116 cells xenografted in athymic nude BALB/cAJcL mouse assessed as inhibition of tumor growth at 150 mg/kg, iv administered on days 1,3,5,8,10 and 12 measured on day 15; format: functional
Mus musculus [8] = assay: Toxicity in athymic nude BALB/cAJcL mouse xenografted with HCT116 cells assessed as mortality at 25 mg/kg, iv administered on days 1,3,5,8,10 and 12; format: organism-based, HCT-116; conditions: in vivo
HCT-116 [9] = assay: Antitumor activity against human HCT116 cells xenografted in iv dosed athymic nude BALB/cAJcL mouse assessed as inhibition of tumor growth drug administered on days 1,3,5,8,10 and 12 measured on day 15; format: functional, organism-based
Mus musculus [10] = assay: Toxicity in athymic nude BALB/cAJcL mouse xenografted with HCT116 cells assessed as mortality at 150 mg/kg, iv administered on days 1,3,5,8,10 and 12; format: organism-based, HCT-116; conditions: in vivo
Mus musculus [11] = assay: Toxicity in athymic nude BALB/cAJcL mouse xenografted with HCT116 cells assessed as body weight loss at 25 mg/kg, iv administered on days 1,3,5,8,10 and 12 relative to vehicle-treated control; format: organism-based, HCT-116; conditions: in vivo
HeLa [12] = assay: Cell cycle arrest at mitotic phase in human HeLa cells assessed as mitotic index after 6 hrs; format: functional
HCT-116 [13] = assay: Antitumor activity against human HCT116 cells xenografted in athymic nude BALB/cAJcL mouse assessed as inhibition of tumor growth at 10 mg/kg, iv administered on days 1,3,5,8,10 and 12 measured on day 15; format: functional
Mus musculus [14] = assay: Toxicity in athymic nude BALB/cAJcL mouse xenografted with HCT116 cells assessed as mortality at 10 mg/kg, iv administered on days 1,3,5,8,10 and 12; format: organism-based, HCT-116; conditions: in vivo
HeLa [15] = assay: Cell cycle arrest at mitotic phase in human HeLa cells assessed as formation of monopolar spindles at 40 nM after 6 hrs by DAPI staining-based microscopic analysis; format: functional

For `N[C@@H](CSC1(c2ccc(C(F)(F)F)cc2)c2ccccc2Oc2ccccc21)C(=O)O`, the IC50 [1] was > 20000 nM and the IC50 (HCT-116 [2]) was > 10000 nM.

`N[C@@H](CSC(c1ccccc1)(c1ccccc1)c1ccc(C(F)(F)F)cc1)C(=O)O` was tested, and the IC50 [1] was 262 nM and the IC50 (HCT-116 [2]) was 216 nM.

`N[C@@H](CSC1(c2ccc(-c3ccccc3)cc2)c2ccccc2C=Cc2ccccc21)C(=O)O` showed an IC50 [1] of 1400 nM and an IC50 (HCT-116 [2]) of 395 nM.

In the case of `N[C@@H](CSC1(c2ccccc2)c2ccccc2CCSc2ccccc21)C(=O)O` (mixture of isomers), the IC50 [1] is reported as > 20000 nM and the IC50 (HCT-116 [2]) is reported as > 10000 nM.

For `N[C@@H](CSC1(c2ccc(C(F)(F)F)cc2)c2ccccc2COc2ccccc21)C(=O)O` (mixture of isomers), the IC50 [1] was 75 nM and the IC50 (HCT-116 [2]) was 76 nM.

Compound `Cc1ccc(C(=O)N(CCCN)[C@@H](c2nc3cc(Cl)ccc3c(=O)n2Cc2ccccc2)C(C)C)cc1` [ISPINESIB] has an IC50 (HCT-116 [2]) of 1.1 nM.

Work on `CON(C)C(=O)N1N=C(c2cc(F)ccc2F)S[C@@]1(CCCN)c1ccccc1` [FILANESIB] yielded an IC50 [1] of 18 nM and an IC50 (HCT-116 [2]) of 0.7 nM.

In the case of `N[C@@H](CSC1(c2ccc(C(F)(F)F)cc2)c2ccccc2Sc2ccccc21)C(=O)O`, the IC50 [1] is reported as > 20000 nM and the IC50 (HCT-116 [2]) is reported as > 10000 nM.

In the case of `N[C@@H](CSC1(c2ccccc2)c2ccccc2CCc2ccccc21)C(=O)O`, the T/C (HCT-116 [3]) is reported as 62%, the Activity (Mus musculus [4]) is reported as “Non-toxic” and the T/C (HCT-116 [5]) is reported as 43%. The ΔTm [6] was 8 °C, the T/C (HCT-116 [7]) was 23% and the Activity (Mus musculus [8]) was “Non-toxic”. The IC50 [1] was 209 nM, the TGI (HCT-116 [9]) was “Dose-dependent effect” and the IC50 (HCT-116 [2]) was 325 nM. The Activity (Mus musculus [10]) was “Non-toxic” and the Activity (Mus musculus [11]) was “Toxic”.

`N[C@@H](CSC1(c2ccc(C(F)(F)F)cc2)c2ccccc2C=Cc2ccccc21)C(=O)O` gave an MI50 (HeLa [12]) of 12 nM, a T/C (HCT-116 [3]) of 12% and a T/C (HCT-116 [13]) of 31%. The Activity (Mus musculus [8]) was “Non-toxic”, the IC50 [1] was 36 nM and the TGI (HCT-116 [9]) was “Dose-dependent effect”. The Activity (Mus musculus [14]) was “Non-toxic”, the IC50 (HCT-116 [2]) was 5 nM and the Activity (HeLa [15]) was “Active”.

For `N[C@@H](CSC1(c2cccc(Cl)c2)c2ccccc2CCc2ccccc21)C(=O)O`, the IC50 [1] was 160 nM and the IC50 (HCT-116 [2]) was 637 nM.

For `N[C@@H](CSC1(c2ccc(Cl)cc2)c2ccccc2C=Cc2ccccc21)C(=O)O`, the IC50 [1] was 12 nM and the IC50 (HCT-116 [2]) was 3.9 nM.

Compound `N[C@@H](CSC1(c2ccc(Oc3ccccc3)cc2)c2ccccc2CCc2ccccc21)C(=O)O` has an IC50 [1] of 306 nM and an IC50 (HCT-116 [2]) of 291 nM.

`N[C@@H](CSC(c1ccccc1)(c1ccccc1)c1ccccc1)C(=O)O` [S-TRITYL-L-CYSTEINE] showed an IC50 (HCT-116 [2]) of 910 nM.

`CC(C)(C)c1ccc(C2(SC[C@H](N)C(=O)O)c3ccccc3CCc3ccccc32)cc1` showed an IC50 [1] of 301 nM and an IC50 (HCT-116 [2]) of 234 nM.

`N[C@@H](CSC1(c2ccc(Cl)cc2)c2ccccc2CCc2ccccc21)C(=O)O` was tested, and the T/C (HCT-116 [3]) was 11%, the Activity (Mus musculus [8]) was “Non-toxic” and the IC50 [1] was 11 nM. For the same compound, the IC50 (HCT-116 [2]) was 41 nM and the Activity (Mus musculus [11]) was “Toxic”.

`Cc1ccccc1C1(SC[C@H](N)C(=O)O)c2ccccc2CCc2ccccc21` was tested, and the IC50 [1] was 7800 nM and the IC50 (HCT-116 [2]) was 4590 nM.

Work on `COc1ccc(C2(SC[C@H](N)C(=O)O)c3ccccc3C=Cc3ccccc32)cc1` yielded a ΔTm [6] of 12.5 °C, an IC50 [1] of 8.6 nM and an IC50 (HCT-116 [2]) of 2.6 nM.

Work on `Cc1ccc(C2(SC[C@H](N)C(=O)O)c3ccccc3C=Cc3ccccc32)cc1` yielded an IC50 [1] of 14 nM and an IC50 (HCT-116 [2]) of 3.4 nM.

In the case of `N[C@@H](CSC1(c2ccc(C(F)(F)F)cc2)c2ccccc2CSc2ccccc21)C(=O)O` (mixture of isomers), the IC50 [1] is reported as 61 nM and the IC50 (HCT-116 [2]) is reported as 15 nM.

`N[C@@H](CSC1(c2cccc(C(F)(F)F)c2)c2ccccc2CCc2ccccc21)C(=O)O` showed an IC50 [1] of 238 nM and an IC50 (HCT-116 [2]) of 123 nM.

Compound `COc1ccc(C(SC[C@H](N)C(=O)O)(c2ccccc2)c2ccccc2)cc1` has a ΔTm [6] of 9 °C and an IC50 (HCT-116 [2]) of 213 nM.

With `N[C@@H](CSC1(c2ccc(-c3ccccc3)cc2)c2ccccc2CCc2ccccc21)C(=O)O` the IC50 [1] was 1060 nM and the IC50 (HCT-116 [2]) was 1300 nM.

With `Cc1ccc(C2(SC[C@H](N)C(=O)O)c3ccccc3CCc3ccccc32)cc1` the T/C (HCT-116 [3]) was 19%, the Activity (Mus musculus [8]) was “Non-toxic” and the IC50 [1] was 9.3 nM. The IC50 (HCT-116 [2]) was 25 nM.

Source: ChEMBL document CHEMBL3632570, “Structure-Guided Design of Novel l-Cysteine Derivatives as Potent KSP Inhibitors” (ACS Med Chem Lett, 2015)
